Measured values taken from paper PMC5652740, “Inhibition of HIV-1 infection in humanized mice and metabolic stability of protein phosphatase-1-targeting small molecule 1E7-03” (Oncotarget, 2017).
Where two headings read alike, the source gives them in different places.

Key:
[1] = biological target: T1, Recombinant PP1 (human PP1α residues 7–300) (Homo sapiens, UniProt P62136); assay: Surface plasmon resonance direct binding to immobilized PP1; settings: SPR
T1 construct: human PP1α (residues 7–300); His; made in house; host or cells: BL21 (DE3) Escherichia coli, co-expressed with GroEL/GroES chaperones
T1 sequence (P62136 7-300): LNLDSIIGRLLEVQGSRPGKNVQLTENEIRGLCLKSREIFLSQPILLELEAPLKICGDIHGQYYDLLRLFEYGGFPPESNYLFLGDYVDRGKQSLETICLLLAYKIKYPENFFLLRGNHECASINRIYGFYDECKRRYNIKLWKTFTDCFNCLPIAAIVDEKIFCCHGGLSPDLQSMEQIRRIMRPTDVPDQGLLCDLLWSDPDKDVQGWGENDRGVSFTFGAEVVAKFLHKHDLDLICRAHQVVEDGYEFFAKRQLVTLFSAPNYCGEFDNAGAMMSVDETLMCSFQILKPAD
Description: PP1 was purified as previously described. BL21 (DE3) Escherichia coli cells (Invitrogen, Carlsbad, CA, USA) were -transformed with a vector expressing human PP1α (residues 7–300) and pGR07, which expresses GroEL/[…] chaperones (both gifts from Dr Mathieu Bollen and Monique Beullens, KU Leuven, Belgium). The cells were grown in media supplemented with 1 mM MnCl2 at 30°C to an A600 =0.5. Arabinose (2 g per L) was added to induce expression of the GroEL/GroES chaperones. When A600 =1 was reached, the cells were transferred to 10°C and PP1 expression was induced with 0.1 mM Isopropyl β-D-1-thiogalactopyranoside for 20 hrs. Harvested cells were lysed using sonication in a solution containing in 50 mM Tris-HCl (pH 8.0), 5 mM imidazole, 700 mM NaCl, 1 mM MnCl2, 0.1% Triton X-100 (v/v) and protease inhibitors. His-tagged PP1 was purified using a Ni-NTA IMAC column (Qiagen, Valencia, CA, USA). Purified PP1 was dialyzed and stored at −70°C in 50 mM Tris-HCl (pH 8.0), 5 mM imidazole, 700 mM NaCl and 1 mM MnCl2. PP1 activity was then assayed as previously described.
The SPR measurements were conducted on Biacore T200 instrument (GE Healthcare, Piscataway, NJ) at 25°C. Recombinant PP1 was immobilized on a CM5 chip by amine coupling (GE Healthcare). PP1 (200 nM) was captured on flow cell 2 in 10 mM acetate buffer, pH 5.0, supplemented with 2 mM MnCl2. […] Flow cell 1 was used as a reference surface to subtract background signal. Also injections of the buffer alone were used to provide double reference subtraction. […] For binding and kinetics experiments, all compounds were diluted in the running buffer, at 40 μM, 20 μM, 10 μM, 5 μM, 2.5 μM, 1.25 μM and 0 μM and then passed over the two flow cells at a flow rate of 100 μl/min for 60 sec. The number of response units was recorded after the subtraction of the reference flow cell's value (Fc2-1). Two repetitions were performed for each injection. Data were analyzed using the BiaEvaluation software of Biacore with a 1:1 binding model. […] All the small molecular weight compounds were used at 1 μM.

HIV-1 env and gag mRNA = HIV-1 env and gag mRNA expression by real-time RT-PCR in infected CEM T cells; assay type: cell-based; settings: 10 μM 1E7-03, DP1, DP3; 5 μM AZT, 3TC; in words
Description: For quantitative analysis of HIV-1 RNA, CEM T cells were infected with HIV-1-LUC-G virus. Cells were treated with 10 μM 1E7-03, 10 μM DP1, 10 μM DP3, 5 μM AZT or 5 μM 3TC and control cells were untreated or treated with DMSO. Total RNA was isolated using Trizol Reagent (Invitrogen, Carlsbad, CA) according to the manufacturer's protocol. Total RNA (100 ng) was reverse transcribed to cDNA using Superscript™ RT-PCR kit (Invitrogen, Carlsbad, CA). Hexamers and oligo-dT were used as primers. For real-time PCR analysis, cDNA was amplified using Roche LightCycler 480 (Roche Diagnostics) and SYBR Green1 Master mix (Roche Diagnostics). PCR was run for 45 cycles and each cycle included denaturation at 95°C for 10 seconds, annealing at 60°C for 10 seconds, and extension at 72°C for 10 seconds. Quantification of env and gag was carried using 18S RNA as a normalization standard. Quantification of housekeeping genes, β-actin and RSP13 was carried relative to 18S RNA. Mean Cp values were determined and ΔΔCt method was used to calculate relative expression levels. Unpaired t-test was used to test statistical significance.
The following primer sequences were used: env, forward - […], reverse-[…]; gag, forward- […], reverse- […]; β-actin, forward- […], reverse-[…]; RSP13, forward- […], reverse- […]; and 18SrRNA, forward- […], reverse- […].

CEM T cells = assay: Cell viability, trypan blue-based assay; settings: 24 h; for effect on cell viability: up to 180 μM, in words
Description: CEM T cells were cultured in 96-well plates at 37°C and incubated with the indicated compound concentrations for 24 hrs. Cell viability was determined using trypan blue-based assay.

[2] = 1:1 binding model, 25°C, read-out: PP1 WT KD
[3] = as quoted in the discussion, read-out: KD

Structure (SMILES)	Kd [1, 2]	Kd [1, 3]	HIV-1 env mRNA expression (HIV-1 env and gag mRNA)	HIV-1 gag mRNA expression (HIV-1 env and gag mRNA)	viability reduction (CEM T cells; highest tested 180 μM)	effect on cell viability (CEM T cells)
CCNC(=O)NC(=O)C(C)OC(=O)c1c2c(nc3ccccc13)/C(=C/c1ccc(OC)c(OC)c1)CC2 (stereo not drawn) [1E7-03]	6.16 µM	6.2 µM	significantly reduced	significantly reduced	about 30%	
COc1ccc(/C=C2\CCc3c2nc2ccccc2c3C(=O)OC(C)C(=O)O)cc1OC (stereo not drawn) [DP1]	3.75 µM	~4 µM	not affected	not affected		no effect
COc1ccc(/C=C2\CCc3c2nc2ccccc2c3C(=O)O)cc1OC [DP3]	4.88 µM	~4 µM	not affected	not affected		no effect
